The target in experiment [1] is T1, eIF4E (Homo sapiens, UniProt P06730).
T1 construct: made in house; Plasmid and cells were provided by Cyclacel Ltd., Dundee
Kind of experiment: Surface plasmon resonance Kd determination on immobilized eIF4E (Biacore T100, CM5 chip). It is filed as binding. To be noted: for Kd / binding to eIF4E compared with EE-02: SPR; for Kd: eIF4E immobilized on CM5 chip, 1:1 binding model, three separate titrations; for Fold change: KD relative to EE-2 (SPR); for binding to eIF4E compared with EE-02: in words. The protocol:
Surface Plasmon Resonance (for Structural Activity Relationship (SAR) Tables)
For stock peptide solutions, the compounds were dissolved in 100% DMSO to a concentration of 10 mM; further dilutions of the peptide stock solutions into DMSO and/or running buffer were performed immediately prior to analysis. Running buffer consisted of 10 mM Hepes pH 7.6, 0.15 M NaCl, and 0.1% Tween20. Stock/DMSO diluted peptide solutions were diluted into 1.03× running buffer to make a peptide solution with 3% DMSO final concentration. […] Surface Plasmon resonance experiments were performed on a Biacore T100 machine.
Pure eIF4E was immnobilized on a CM5 sensor chip. The CM5 chip was conditioned with a 6 s injection of 100 mM HCL, followed by a 6 s injection of 0.1% SDS and completed with a 6 s injection of 50 mM NaOH at a flow rate of 100 μl/min. Activation of the sensor chip surface was performed with a mixture of NHS (115 mg ml^−1) and EDC (750 mg ml^−1) for 7 min at 10 μl min^−1. […] The amount of eIF4E immobilized on the activated surface was controlled by altering the contact time of the protein solution and was approximately 1000 RU. After the immobilization of the protein, a 7-min injection (at 10 μl min^−1) of 1 M ethanolamine (pH 8.5) was used to quench excess active succinimide ester groups.
Six buffer blanks were first injected to equilibrate the instrument fully and then a solvent correction curve was performed followed by a further two blank injections. The solvent correction curve was setup by adding varying amount of 100% DMSO to 1.03× running buffer to generate a range of DMSO solutions (3.8%, 3.6%, 3.4%, 3.2%, 3%, 2.85%, 2.7% and 2.5% respectively). Using a flow rate of 50 μl/min, compounds were injected for 60 s and dissociation was monitored for 180 s. The data collection rate was 10 Hz. Kds were determined using the BiaEvaluation software (Biacore) and calculated from both the response of the eIF4E coated CM5 chips at equilibrium and also kinetically from the dissociation and association phase data for each of the peptides. Both the equilibrium and kinetic data were fitted to 1:1 binding models. Each individual peptide Kd was determined from three separate titrations. Within each titration at least two concentration points were duplicated to ensure stability and robustness of the chip surface.
Kd were determined using surface plasmon resonance (SPR) as described in Methods.

Experiment [2] has as its target T1, eIF4E. Description: Tryptophan quenching experiments. The note with it: 1 μM eIF4E, 0.01-20 μM titrant, excitation 290 nm, emission 355 nm; FIG. 2. It is filed as binding. The protocol: Tryptophan Quenching Experiments
Tryptophan quenching experiments were performed using an EnVision® multiplate reader with black matte 96-well plates. […] Concentrations tested ranged from 0.01-20 μM. Samples were excited with UV light at 290 nm to minimise contribution from tyrosine fluorescence. Tryptophan was measured at an emission wavelength of 355 nm.

Experimental findings from patent US12338296B2, “Peptides and compounds that bind to elongation initiation factor 4E” (AGENCY FOR SCIENCE, TECHNOLOGY AND RESEARCH, priority 2019, dated 2025) are described below.

Peptide text beside a SMILES is read from it. Bounds are passed on as bounds.

T1 sequence (P06730 whole entry): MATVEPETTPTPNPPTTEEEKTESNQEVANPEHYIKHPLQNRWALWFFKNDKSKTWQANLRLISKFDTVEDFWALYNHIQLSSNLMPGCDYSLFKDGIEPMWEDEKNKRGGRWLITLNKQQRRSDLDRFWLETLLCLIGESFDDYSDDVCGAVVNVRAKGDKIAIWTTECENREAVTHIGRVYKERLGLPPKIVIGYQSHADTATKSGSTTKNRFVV

Take `CSCC[C@@H]1NC(=O)[C@H](C)NC(=O)[C@@H](NC(=O)[C@H](C)N)CSSC[C@@H](C(=O)NCC(N)=O)NC(=O)[C@H](CC(=O)O)NC(=O)[C@H](CCC(N)=O)NC(=O)[C@H](Cc2ccccc2)NC(=O)[C@H](Cc2ccccc2)NC(=O)CNC1=O` [EE-2A] (HELM PEPTIDE1{A.C.A.M.G.F.F.Q.D.C.G.[am]}$PEPTIDE1,PEPTIDE1,2:R3-10:R3$$$V2.0; bridges inferred): the Kd in experiment [1] is 11 µM.

For the compound `C[C@H](N)C(=O)N[C@H]1CSSC[C@@H](C(=O)NCC(N)=O)NC(=O)[C@H](CC(=O)O)NC(=O)[C@H](CCC(N)=O)NC(=O)[C@H](Cc2ccccc2)NC(=O)[C@H](Cc2ccccc2)NC(=O)CNC(=O)[C@H](C)NC(=O)[C@H](CCC(=O)O)NC1=O` [EE-2B] (HELM PEPTIDE1{A.C.E.A.G.F.F.Q.D.C.G.[am]}$PEPTIDE1,PEPTIDE1,2:R3-10:R3$$$V2.0), in experiment [1], the Kd was more than 50 µM.

Compound `CSCC[C@@H]1NC(=O)[C@H](CCC(=O)O)NC(=O)[C@@H](NC(=O)[C@H](C)N)CSSC[C@@H](C(=O)NCC(N)=O)NC(=O)[C@H](CC(=O)O)NC(=O)[C@H](CCC(N)=O)NC(=O)[C@H](Cc2ccccc2)NC(=O)[C@H](Cc2ccccc2)NC(=O)[C@H](C)NC1=O` [EE-2C] (HELM PEPTIDE1{A.C.E.M.A.F.F.Q.D.C.G.[am]}$PEPTIDE1,PEPTIDE1,2:R3-10:R3$$$V2.0; bridges inferred) showed a Kd in experiment [1] of 32 µM.

In turn, `CSCC[C@@H]1NC(=O)[C@H](CCC(=O)O)NC(=O)[C@@H](NC(=O)[C@H](C)N)CSSC[C@@H](C(=O)NCC(N)=O)NC(=O)[C@H](CC(=O)O)NC(=O)[C@H](CCC(N)=O)NC(=O)[C@H](C)NC(=O)[C@H](Cc2ccccc2)NC(=O)CNC1=O` [EE-2E] (HELM PEPTIDE1{A.C.E.M.G.F.A.Q.D.C.G.[am]}$PEPTIDE1,PEPTIDE1,2:R3-10:R3$$$V2.0) returned a Kd in experiment [1] of more than 50 µM.

In experiment [1], `CSCC[C@@H]1NC(=O)[C@H](CCC(=O)O)NC(=O)[C@@H](NC(=O)[C@H](C)NC(C)=O)CSSC[C@@H](C(=O)NCC(N)=O)NC(=O)[C@H](CC(=O)O)NC(=O)[C@H](CCC(N)=O)NC(=O)[C@H](Cc2ccccc2)NC(=O)[C@H](Cc2ccccc2)NC(=O)CNC1=O` [EE-11] yielded a Fold change of 4.9 and a Kd of 1 µM.

In turn, `CSCC[C@@H]1NC(=O)[C@H](CCC(=O)O)NC(=O)[C@@H](NC(=O)[C@H](C)N)CSSC[C@@H](C(=O)NCC(N)=O)NC(=O)[C@H](CC(=O)O)NC(=O)[C@H](CCC(N)=O)NC(=O)[C@H](Cc2ccccc2)NC(=O)[C@H](Cc2ccccc2)NC(=O)CCNC1=O` [EE-27] (HELM PEPTIDE1{A.C.E.M.[bAla].F.F.Q.D.C.G.[am]}$PEPTIDE1,PEPTIDE1,2:R3-10:R3$$$V2.0) registered a Kd in experiment [1] of more than 50 µM.

`CSCC[C@@H]1NC(=O)[C@H](CCC(=O)O)NC(=O)[C@@H](NC(=O)[C@H](C)N)CSSC[C@@H](C(=O)NCC(N)=O)NC(=O)[C@H](CC(=O)O)NC(=O)[C@H](CCC(N)=O)NC(=O)[C@H](Cc2ccccc2)NC(=O)[C@H](Cc2ccccc2)NC(=O)[C@@H]2CCCN2C1=O` [EE-29] (HELM PEPTIDE1{A.C.E.M.P.F.F.Q.D.C.G.[am]}$PEPTIDE1,PEPTIDE1,2:R3-10:R3$$$V2.0) yielded an equilibrium dissociation constant (Kd) in experiment [1] of more than 50 µM.

As for `CSCC[C@@H]1NC(=O)[C@H](CCC(=O)O)NC(=O)[C@@H](NC(=O)[C@H](C)N)CSSC[C@@H](C(=O)NCC(N)=O)NC(=O)[C@H](CC(=O)O)NC(=O)[C@H](CCC(N)=O)NC(=O)[C@H](Cc2ccccc2)NC(=O)[C@H](Cc2ccc(O)cc2)NC(=O)CNC1=O` [EE-30] (HELM PEPTIDE1{A.C.E.M.G.Y.F.Q.D.C.G.[am]}$PEPTIDE1,PEPTIDE1,2:R3-10:R3$$$V2.0), in experiment [1], the “binding to eIF4E compared with EE-02” value is listed as “bound more tightly than EE-02”.

In experiment [1], `CSCC[C@@H]1NC(=O)[C@H](CCC(=O)O)NC(=O)[C@@H](NC(=O)[C@H](C)N)CSSC[C@@H](C(=O)NCC(N)=O)NC(=O)[C@H](CC(=O)O)NC(=O)[C@H](CCC(N)=O)NC(=O)[C@H](Cc2ccccc2)NC(=O)[C@H](CC(C)C)NC(=O)CNC1=O` [EE-33] (HELM PEPTIDE1{A.C.E.M.G.L.F.Q.D.C.G.[am]}$PEPTIDE1,PEPTIDE1,2:R3-10:R3$$$V2.0) came in with a Kd of more than 50 µM.

On to `CSCC[C@@H]1NC(=O)[C@H](CCC(=O)O)NC(=O)[C@@H](NC(=O)[C@H](C)N)CSSC[C@@H](C(=O)NCC(N)=O)NC(=O)[C@H](CC(=O)O)NC(=O)[C@H](CCC(N)=O)NC(=O)[C@H](CC(C)C)NC(=O)[C@H](Cc2ccccc2)NC(=O)CNC1=O` [EE-34] (HELM PEPTIDE1{A.C.E.M.G.F.L.Q.D.C.G.[am]}$PEPTIDE1,PEPTIDE1,2:R3-10:R3$$$V2.0), for which the dissociation constant (Kd) in experiment [1] was more than 50 µM.

Regarding `CSCC[C@@H]1NC(=O)[C@H](CCC(=O)O)NC(=O)[C@@H](NC(=O)[C@H](C)N)CSSC[C@@H](C(=O)NCC(N)=O)NC(=O)[C@H](CC(=O)O)NC(=O)[C@H](CCC(N)=O)NC(=O)[C@H](Cc2ccc(O)cc2)NC(=O)[C@H](Cc2ccccc2)NC(=O)CNC1=O` [EE-35] (HELM PEPTIDE1{A.C.E.M.G.F.Y.Q.D.C.G.[am]}$PEPTIDE1,PEPTIDE1,2:R3-10:R3$$$V2.0), the “binding to eIF4E compared with EE-02” value in experiment [1] was “bound more tightly than EE-02”.

Compound `CSCC[C@@H]1NC(=O)[C@H](CCC(=O)O)NC(=O)[C@@H](NC(=O)[C@H](C)N)CSSC[C@@H](C(=O)NCC(N)=O)NC(=O)[C@H](CC(=O)O)NC(=O)[C@H](CCC(N)=O)NC(=O)[C@H](CC(C)C)NC(=O)[C@H](CC(C)C)NC(=O)CNC1=O` [EE-38] (HELM PEPTIDE1{A.C.E.M.G.L.L.Q.D.C.G.[am]}$PEPTIDE1,PEPTIDE1,2:R3-10:R3$$$V2.0) displayed a Kd in experiment [1] of more than 50 µM.

In the case of `CSCC[C@@H]1NC(=O)[C@H](CCC(=O)O)NC(=O)[C@@H](NC(=O)[C@H](C)N)CSSC[C@@H](C(=O)NCC(N)=O)NC(=O)[C@H](CC(=O)O)NC(=O)[C@H](CCCCN)NC(=O)[C@H](Cc2ccccc2)NC(=O)[C@H](Cc2ccccc2)NC(=O)CNC1=O` [EE-39] (HELM PEPTIDE1{A.C.E.M.G.F.F.K.D.C.G.[am]}$PEPTIDE1,PEPTIDE1,2:R3-10:R3$$$V2.0), in experiment [1], the Fold change amounted to 0.5.

In the case of `CSCC[C@@H]1NC(=O)[C@H](CCC(=O)O)NC(=O)[C@@H](NC(=O)[C@H](C)N)CSSC[C@@H](C(=O)NCC(N)=O)NC(=O)[C@H](CC(=O)O)NC(=O)CNC(=O)[C@H](Cc2ccccc2)NC(=O)[C@H](Cc2ccccc2)NC(=O)CNC1=O` [EE-40] (HELM PEPTIDE1{A.C.E.M.G.F.F.G.D.C.G.[am]}$PEPTIDE1,PEPTIDE1,2:R3-10:R3$$$V2.0), in experiment [1], the Fold change came to 1.9 and binding was characterised by a dissociation constant (Kd) of 0.4 µM.

In experiment [1], `CSCC[C@@H]1NC(=O)[C@H](CCC(=O)O)NC(=O)[C@@H](NC(=O)[C@H](C)N)CSSC[C@@H](C(=O)NCC(N)=O)NC(=O)[C@H](CC(=O)O)NC(=O)[C@H](CC(C)C)NC(=O)[C@H](Cc2ccccc2)NC(=O)[C@H](Cc2ccccc2)NC(=O)CNC1=O` [EE-41] (HELM PEPTIDE1{A.C.E.M.G.F.F.L.D.C.G.[am]}$PEPTIDE1,PEPTIDE1,2:R3-10:R3$$$V2.0) had a Fold change of 0.9.

Regarding `CSCC[C@@H]1NC(=O)[C@H](CCC(=O)O)NC(=O)[C@@H](N)CSSC[C@@H](C(N)=O)NC(=O)[C@H](CC(=O)O)NC(=O)[C@H](C)NC(=O)[C@H](Cc2ccccc2)NC(=O)[C@H](Cc2ccccc2)NC(=O)CNC1=O` [EE-44] (HELM PEPTIDE1{C.E.M.G.F.F.A.D.C.[am]}$PEPTIDE1,PEPTIDE1,1:R3-9:R3$$$V2.0), in experiment [1], the Fold change came out at 0.4.

In the case of “KKRYSRDQLVAL (Synthetic peptide PHAGESOL) [reference compound]”, in experiment [2], the “tryptophan quenching of eIF4E” value is given as “significantly lower amounts of tryptophan quenching”.
